Assays:
Trypanosoma cruzi [1] = assay: Antiparasitic activity against epimastigote form of Trypanosoma cruzi Y after 96 hrs by hemocytometry; assay type: functional, organism-based
[2] = Cytotoxicity against mouse J774A1 cells after 48 hrs by MTT assay; assay type: cell-based, J774.A1
[3] = Cytotoxicity against monkey LLC-MK2 cells after 48 hrs by MTT assay; assay type: cell-based, Macaca mulatta; conditions: rhesus monkey
Trypanosoma cruzi [4] = assay: Antiparasitic activity against trypomastigote form of Trypanosoma cruzi Y infected in LLCMK2 cells assessed as parasite lysis after 24 hrs by Pizzi-Brener method; assay type: functional, organism-based; conditions: LLC-MK2, 24 h
Leishmania amazonensis = assay: Antiparasitic activity against promastigote form of Leishmania amazonensis MHOM/BR/Josefa after 72 hrs by hemocytometry; assay type: functional, organism-based

Structure (SMILES) | IC50 (Trypanosoma cruzi [1]) | EC50 (Trypanosoma cruzi [4]) | IC50 (Leishmania amazonensis) | CC50 at 48 h [2] | CC50 at 48 h [3]
COc1ccc(/C=C/C(=O)/C(C)=C/c2ccc(N(C)C)cc2)cc1 | > 100 µM | > 100 µM | 20.1 µM | 34.3 µM | 285 µM
COc1ccc(/C=C(\C)C(=O)/C=C/c2ccccc2)cc1 | 16.7 µM | 73.3 µM | 22.3 µM | 54 µM | 44 µM
C/C(=C\c1ccc(N(C)C)cc1)C(=O)/C=C/c1ccccc1 | 24.1 µM | 78.3 µM | 21.5 µM | 28.5 µM | 191 µM
COc1ccc(/C=C/C(=O)/C(C)=C/c2ccc(OC)cc2)cc1 | 23.6 µM | > 100 µM | 21.8 µM | 34.1 µM | 75 µM
C/C(=C\c1ccc(N(C)C)cc1)C(=O)/C=C/c1ccc([N+](=O)[O-])cc1 | > 100 µM | > 100 µM | > 100 µM | 967 µM | 167 µM
CC(=O)/C(C)=C/c1ccc([N+](=O)[O-])cc1 | 82.2 µM | > 100 µM | > 100 µM | 70.5 µM | 266 µM
O=C(Cn1ccnc1[N+](=O)[O-])NCc1ccccc1 [BENZNIDAZOLE] | – | – | – | – | 615 µM
CC(=O)/C(C)=C/c1ccc(N(C)C)cc1 | > 100 µM | > 100 µM | > 100 µM | 160 µM | 150 µM
C[C@@H]1[C@H](O)[C@@H](C)/C=C/C=C/C=C/C=C/C=C/C=C/C=C/[C@H](O[C@@H]2O[C@H](C)[C@@H](O)[C@H](N)[C@@H]2O)C[C@@H]2O[C@](O)(C[C@@H](O)C[C@@H](O)[C@H](O)CC[C@@H](O)C[C@@H](O)CC(=O)O[C@H]1C)C[C@H](O)[C@H]2C(=O)O [AMPHOTERICIN B] | – | – | 0.06 µM | – | –

Continued, in another order:

IC50 (Trypanosoma cruzi [1]) | EC50 (Trypanosoma cruzi [4]) | IC50 (Leishmania amazonensis) | Structure (SMILES) | CC50 at 48 h [2] | CC50 at 48 h [3]
1.8 µM | 15.4 µM | 3.4 µM | C/C(=C\c1ccc([N+](=O)[O-])cc1)C(=O)/C=C/c1ccc([N+](=O)[O-])cc1 | 43 µM | 32.5 µM
3.5 µM | 17.5 µM | 13.4 µM | C/C(=C\c1ccc([N+](=O)[O-])cc1)C(=O)/C=C/c1ccccc1 | 47.3 µM | 264 µM
10 µM | 73.3 µM | 15.5 µM | COc1ccc(/C=C/C(=O)/C(C)=C/c2ccc([N+](=O)[O-])cc2)cc1 | 36.6 µM | 172 µM
14 µM | > 100 µM | 12 µM | C/C(=C\c1ccc([N+](=O)[O-])cc1)C(=O)/C=C/c1ccc(N(C)C)cc1 | 24.7 µM | 25.9 µM
15.9 µM | 71.7 µM | 15.3 µM | C/C(=C\c1ccccc1)C(=O)/C=C/c1ccccc1 | 34.5 µM | 33.6 µM
25.1 µM | > 100 µM | 20.5 µM | C/C(=C\c1ccc(N(C)C)cc1)C(=O)/C=C/c1ccc(N(C)C)cc1 | 10 µM | 314 µM
> 100 µM | > 100 µM | > 100 µM | COc1ccc(/C=C(\C)C(C)=O)cc1 | 240 µM | 280 µM
16.9 µM | 65 µM | 11.6 µM | C/C(=C\c1ccccc1)C(=O)/C=C/c1ccc([N+](=O)[O-])cc1 | 26 µM | 43.3 µM
> 100 µM | > 100 µM | > 100 µM | CC(=O)/C(C)=C/c1ccccc1 | 742 µM | 688 µM
13.3 µM | > 100 µM | 20 µM | C/C(=C\c1ccccc1)C(=O)/C=C/c1ccc(N(C)C)cc1 | 20.2 µM | 53 µM
25.2 µM | > 100 µM | 14.8 µM | COc1ccc(/C=C(\C)C(=O)/C=C/c2ccc([N+](=O)[O-])cc2)cc1 | 30 µM | 20.1 µM
14.3 µM | > 100 µM | 20.4 µM | COc1ccc(/C=C/C(=O)/C(C)=C/c2ccccc2)cc1 | 51 µM | 93 µM
21.3 µM | > 100 µM | 18 µM | COc1ccc(/C=C(\C)C(=O)/C=C/c2ccc(N(C)C)cc2)cc1 | 36.2 µM | 411 µM

Source: ChEMBL document CHEMBL3102765, “Unsymmetrical 1,5-diaryl-3-oxo-1,4-pentadienyls and their evaluation as antiparasitic agents” (Bioorg Med Chem, 2014)
